Measured values reported in the Biogen ADME set (Fang et al. 2023).
Values after ≈ are worked out from the molar mass of the structure shown.

Conditions: for aqueous solubility: pH 6.8

Compound	MDR1-MDCK efflux ratio	intrinsic clearance, human liver microsomes [mL/min/kg]	intrinsic clearance, rat liver microsomes [mL/min/kg]	aqueous solubility [µg/mL]	fraction unbound, human plasma	fraction unbound, rat plasma
CCOC(=O)c1ccc(NC(=O)Cn2cnc3ccccc32)cc1	4.28	7.03	521	18.4 (≈ 56.9 µM)		
C[C@@H](CN1CCC(n2c(=O)[nH]c3cc(Cl)ccc32)CC1)NC(=O)c1ccc2ccccc2c1		104	668	3.85 (≈ 8.32 µM)		
CC1(C)[C@@H]2C[C@H]1[C@@]1(O)[C@@H](C2)Oc2c(ccc(O)c2C(=O)NCCNc2ccccn2)[C@@H]1O	24.5	322	2010			
Clc1ccc(Cc2nc(-c3ccccc3)n[nH]2)cn1	1.52	40.9	66.8	20.1 (≈ 74.2 µM)		
CC1(C)CN(C(=O)C2(C(=O)N3CC(C)(C)C3(C)C)CCC2)C1(C)C	2.4	304	1210	75 (≈ 224 µM)		
CSc1ccccc1NC(=O)CN1CCCC(c2nc3ccccc3o2)C1 (stereo not drawn)		1120	4670	8.5 (≈ 22.3 µM)		
COCCN1CCOc2nc3c(C)cccc3cc2C1	0.564	14.7	882			
Cc1cccn(Cc2cccnc2)c1=O	0.609	≤ 4.74	≤ 10.7	47 (≈ 235 µM)		
COc1cc2cc(N)c(C3CCN(C(=O)C(C)(C)C)CC3)nc2cc1OC	5.8	7.04	43.5	53 (≈ 143 µM)		
CCCCN1CCc2nc3cc(C4CC4)nn3c(O)c2C1	26.5	≤ 4.74	≤ 10.7			
Cn1ccc(NC(=O)[C@H]2CCCCN2C(=O)OC(C)(C)C)n1	2.54	≤ 4.74	154	42.4 (≈ 137 µM)		
Cc1ncc(CCN2C(=O)NC3(CCCC3)C2=O)s1	91	≤ 4.74	63.6			
Nc1ccccc1-c1nc(C2CC2)no1		322	754			
O=C(CCc1ccc(-c2ccccc2)o1)N1CCC(n2c(=O)[nH]c3ccccc32)CC1		255	1760			
CCOC(=O)N1CCN(C(=O)Nc2cccc3c2CCCC3)CC1	1.68	37.6	394	51.6 (≈ 156 µM)		
c1ccc(-c2ncc(CNc3ncccn3)s2)nc1	0.641	40.5	2070			
CCN1CCCN(C(=O)Nc2ccc(COC3CCCC3)cc2)CC1	9.16	6.32	287			
CCN(CC)Cc1cnc(NC(=O)c2ccccc2)s1		≤ 4.74	192			

Compound	MDR1-MDCK efflux ratio	intrinsic clearance, human liver microsomes [mL/min/kg]	intrinsic clearance, rat liver microsomes [mL/min/kg]	aqueous solubility [µg/mL]	fraction unbound, human plasma	fraction unbound, rat plasma
Cc1ccc(C)c(NC(=O)c2cccc(-c3ncon3)c2)c1		41.7	164			
Cc1cc(C(F)(F)F)nc(N(C)Cc2c(C)noc2C)n1		91.7	589			
Fc1ccccc1-c1c[nH]nc1C1CCCN1Cc1ccc2ncccc2c1 (stereo not drawn)	2.26	400	1630	29.2 (≈ 78.4 µM)	0.0351	0.0289
Cn1cnnc1CCn1ccnc1-c1cc2ccccc2s1	134	≤ 4.74	25.3	33 (≈ 106 µM)		
COc1cc(CC(=O)Nc2ccccc2F)ccc1C				26 (≈ 95.1 µM)		
Cc1nc2ncccn2c1C(=O)N(CC#Cc1ccccc1)C1CCCC1	1.94	63.7	4650	42.9 (≈ 120 µM)		
COc1ccncc1NCc1cscn1		≤ 4.74	25.4			
Cc1cc(OCc2cc(C#N)ccc2F)ccc1N				25.4 (≈ 99.2 µM)		
Nc1nc(-c2ccccc2)nc2nc(C3CCCN(CC(=O)N4CCCC4)C3)ccc12 (stereo not drawn)	12.5	5.81	186	68.6 (≈ 165 µM)		
O=C(O)c1cc2cc(O)c(O)cc2c(C(=O)c2ccc(O)c(O)c2)n1		35.5	110	57.9 (≈ 170 µM)		
Cc1nnc(NCC(=O)N2CCc3sccc3C2)c(C#N)c1C	1.31	17.3	267	35.8 (≈ 109 µM)		
NC(=O)c1ccc(N2CCCCC2)c(NC(=O)c2ncoc2-c2ccc3ccccc3c2)c1	0.519			0.24 (≈ 0.545 µM)		
Cc1ccc(-c2nc(C(=O)N3CCc4ccccc4C3)cs2)o1	0.421	187	3610	36 (≈ 111 µM)		
COc1cc(-c2cn(C3CCc4c(F)cccc4N(CC(F)(F)F)C3=O)nn2)ccc1-n1cnc(C)c1 (stereo not drawn)		26.1	49.2			
N#CCc1ccc(OCc2ccncc2)cc1		53.3	373			
Fc1cncc(-c2cnc(NCc3ccc(Cl)c(F)c3)nc2)c1	0.339	14.9	104	3.2 (≈ 9.62 µM)		
COc1cc(C(C)C)c2c(c1)S(=O)(=O)N(COc1cc(=O)n3cccc(OCCN4CCCCC4)c3n1)C2=O	91.5	162	250	53.4 (≈ 95.9 µM)		

Results, then the compound that gave them:

MDR1-MDCK efflux ratio	intrinsic clearance, human liver microsomes [mL/min/kg]	intrinsic clearance, rat liver microsomes [mL/min/kg]	aqueous solubility [µg/mL]	fraction unbound, human plasma	fraction unbound, rat plasma	Compound
2.46	39.8	2290	53.3 (≈ 165 µM)			Cc1noc(C)c1CS(=O)(=O)Cc1cccc2c1OCCO2
			66.8 (≈ 195 µM)			CCc1cc2c(N3CCN(Cc4nccn4C)CC3)ncnc2s1
0.25	124	164	10.7 (≈ 31.4 µM)			O=C(Nc1ccc2c3c(cccc13)CC2)c1ccnc(-n2cncn2)c1
0.766	≤ 4.74	≤ 10.7	43.8 (≈ 206 µM)			CN(C)C(=O)COc1ccc(N)c(F)c1
5.2	≤ 4.74	37.3				O=C(NC1CCCC1)C1=CCN(C(=O)C2CC2)C1
0.672	≤ 4.74	77.5	44.7 (≈ 162 µM)			CN(c1ncnc2c1cnn2CCO)C1CCCCC1
0.511	45.6	459	36.6 (≈ 118 µM)			CC(C)c1noc(-c2ccc(N(C)Cc3cccnc3)nc2)n1
	11	305				Cc1ccn(-c2ccc(NCC3CC3)nn2)n1
1.14	207	2010	30.5 (≈ 84.1 µM)			Cc1ccc(C)c(S(=O)(=O)N2CCCN(CCn3cccn3)CC2)c1
0.227	49.4	50.8	4.34 (≈ 15.4 µM)			COc1ccc(-c2nnc(-c3ccccc3)o2)cc1OC
	45	184	2.33 (≈ 4.44 µM)			CCN(C(=O)CO)[C@H]1CN(/C(=N\C#N)Nc2cccc(OC(F)F)c2)N=C1c1ccc(Cl)c(Cl)c1
3.2	5.08	19.9				CNc1ncnc2c1ncn2[C@H]1CC[C@H](NC(=O)CCCNC(=O)OC(C)(C)C)[C@H](O)[C@H]1O
0.338	27.2	190				O=C(Nc1ccc(N2CCCC2)cn1)c1ccc(-c2cnco2)cc1
13.5	8.23	58.2	32.2			C[n+]1cc2c3c(ccc2c2ccc4cc5c(cc4c21)OCO5)OCO3
0.752	≤ 4.74	≤ 10.7	53 (≈ 122 µM)			Cn1cc(C(=O)N2CCC(c3cc(C(F)(F)F)c4c(n3)CCNC4=O)CC2)ccc1=O
23.3	≤ 4.74	32.4	25 (≈ 71.3 µM)			Cc1ccc(-c2cn(CC3CCN(Cc4c[nH]c(C)n4)CC3)nn2)cc1
2.51	13.3	88.3				CCC[C@@H]1C[C@@H](C(=O)N[C@@H]([C@H]2O[C@H](SC)[C@H](O)[C@@H](O)[C@@H]2O)[C@@H](C)O)N(C)C1
	13	36.1				NCc1ccc(-n2cnc3ccccc32)cc1Cl
48.8	8.1	102	63.4 (≈ 155 µM)			O=C(Nc1ccc(S(=O)(=O)Nc2ccnn2-c2ccccc2)cc1)c1ccco1
			0.99 (≈ 2.14 µM)			O=C(O)c1ccc(COc2ccc(/C=C3\SC(=O)N(Cc4ccc(F)cc4)C3=O)cc2)cc1
0.439	33.4	5960				COCCCNc1ncc(-c2cc(C)no2)c(C(C)C)n1
0.62	≤ 4.74	22.8	28.5 (≈ 132 µM)			CN(Cc1ccc(N)nc1)c1ncccn1
	22.6	611				COc1ccc(S(=O)(=O)N2CCC[C@H](C(=O)Nc3cccc4ncccc34)C2)cc1
